Series [1] relates to HepG2 cells. Also noted: method as in PMID 1312935. Particulars: 1 mM final concentration; cited from earlier work.
Series [2] relates to cell surface sialylation. Also noted: method as in PMID 25278018. Particulars: 500 μM final concentration in culture medium; cited from earlier work.
For series [3], the system named is purified ManNAc kinase. Set-up: method as in PMID 12067740, PMID 15368395, PMID 22343627. Particulars: 5 mM final concentration; cited from earlier work.
Series [4] concerns UDP-GlcNAc-2-epimerase/MNK kinase. Also noted: method as in PMID 12067740, PMID 15368395, PMID 22343627. Particulars: 300 μM; cited from earlier work.
Series [5] concerns the target T1, human MNK (N-acetylmannosamine kinase) (Homo sapiens, UniProt Q9Y223).
T1 construct: His; made in house; host or cells: Escherichia coli BL21-CodonPlus (DE3)-RIL
T1 sequence (Q9Y223 406-722 limits assumed): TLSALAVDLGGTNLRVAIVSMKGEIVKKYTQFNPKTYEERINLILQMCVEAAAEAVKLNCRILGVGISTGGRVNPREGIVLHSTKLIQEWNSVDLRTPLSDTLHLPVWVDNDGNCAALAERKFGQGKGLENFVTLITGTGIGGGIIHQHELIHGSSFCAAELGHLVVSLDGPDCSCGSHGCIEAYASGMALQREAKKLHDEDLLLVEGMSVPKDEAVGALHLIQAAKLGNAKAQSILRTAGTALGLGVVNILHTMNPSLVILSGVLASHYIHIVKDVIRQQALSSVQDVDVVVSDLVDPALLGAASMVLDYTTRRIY
Kind of series: MNK activity, coupled optical assay based on NADH consumption. The series is classed as biochemical. To be noted: for IC50: purified human MNK, ManNAc 125 μM, ATP, means ± SEM, read-out: IC50 for MNK inhibition. The method, then:
N-Acetylmannosamine kinase and N-acetylglucosamine kinase expression and […]
Human N-acetylmannosamine kinase (MNK) was expressed and purified using an established method.1 Therefore, his-tagged MNK was expressed in BL21-CodonPlus (DE3)-RIL Escherichia coli (Stragene). Purification was performed by Ni-NTA affinity chromatography, and subsequently size exclusion chromatography on a SuperdexTM HighLoad 16/600 column (GE Healthcare). […]
To evaluate their purity, protein samples were mixed with SDS-PAGE sample buffer, denatured at 90 °C for 1 min and separated by a 10% SDS-PAGE gel. Proteins were visualized with Coomassie G-250 staining solution (Biorad), and PageRuler Prestained Plus (Biorad) was used as a marker (Figure S1 ).
Figure S1. SDS-PAGE of His-tagged MNK (His-MNK) and GST-tagged GNK
(GST-GNK) after affinity chromatography and size exclusion chromatography.
Apparent molecular masses given by the marker are indicated on the left side.
1 J. Martinez, L. D. Nguyen, S. Hinderlich, R. Zimmer, E. Tauberger, W. Reutter, W. Saenger, H. Fan
2 W.A. Weihofen, M. Berger, H. Chen, W. Saenger, and S. Hinderlich, J. Mol. Biol., 2006, 364, 388.
(1 picture or pasted object on this page, not shown here)
Enzyme activity and inhibition studies using N-acetylmannosamine kinase, N-acetylglucosamine kinase and yeast hexokinase
Evaluation MNK activity in presence of the compounds 11, 12, 14b, 16b and 18b The effects of compounds 11, 12, 14b, 16b, or 18b on MNK enzyme activity were evaluated using a coupled optical assay. 55 µl reaction mixture contained the following buffers and reagents: 39.5 µl buffer A (65 mM MgCl2, 200 mM Tris-HCl, pH 8.1), 5 µl ATP (50 mM), 3.5 µl NADH (30 mM), 2 µl phosphoenolpyruvate (100 mM), 2 U pyruvate-kinase, 2 U lactate-dehydrogenase, 5 µl ManNAc of varying concentrations. Subsequently, 10 µl of the compounds 11, 12, 14b, 16b and 18b were added in varying concentrations. The reaction was initiated by adding 0.6 µg MNK in 35 µL buffer B (10 mM Tris-HCl, 150 mM NaCl, pH 8.0). Samples were incubated at 37°C. Spectrophotometric measurements of NADH concentration was performed at 340 nm. Results obtained were normalized to blanks, consisting of 55 µl reaction mixture, 10 µl H 2O and 35 µl buffer B without MNK.
GNK and hexokinase inhibition assays using compound 14b
To evaluate the specificity of the inhibitor 14b towards other sugar kinases, we performed further inhibition experiments using human GNK and hexokinase (HK) from yeast (Sigma, H-5000). 39.5 µl Buffer A (see above), 5 µl ATP (50 mM), 3.5 µl NADH (30 mM), 2 µl phosphoenolpyruvate (100 mM), 2 U pyruvate-kinase, 2 U lactate-dehydrogenase, 5 µl GlcNAc (7.5 mM, for GNK experiments), or 5 µl ManNAc (7.5 mM, for GNK experiments), or glucose (5 mM, for HK experiments), and 10 µl 14b (varying concentrations) were mixed with either 1 µg GNK or 0.2 µg HK in 35 µL buffer B. The decrease of NADH was measured in a spectrophotometer […]
5 mM for HK activity, respectively (Figure S2).
Figure S2. Inhibition of GNK and HK activity by 14b. Values are means ± SEM of […]

Series [6] has as its system Jurkat cells. Particulars: human, 72 h, 100 μM.
In series [7] the test system is Jurkat cells. Kind of series: Cell surface sialylation, 6'-sialyl-LacNAc by FITC-PSL flow cytometry. The series is classed as cell-based. To be noted: 72 h. Background: A flow cytometer gives signals particle by particle.

Entries after “also recorded” stand apart in the source; their conditions may differ. A value given as a limit tells only on which side of the number the result lay.

With `CO[C@H]1[C@H](O)[C@@H](CO)OC(O)[C@@H]1NC(C)=O` (stereo partly drawn) [Compound 1, 3-O-methyl-N-acetyl-glucosamine], the “reduction of incorporation rate of N-GlcNAc and N-ManNAc into glycoproteins” value in series [1] was 70%.

Take `COC1C(O)C(CO)OC(O)C1NC(C)=O` (stereo not drawn) [Compound 2]: the “cell surface sialylation reduced to” value in series [2] is on record as 20%.

For `CC(=O)NC1C(O)OC(COC(C)=O)C(O)C1O` (stereo not drawn) [Compound 3, 6-O-Ac-ManNAc], the “inhibition of the enzyme” value in series [3] is given as 60%.

Turning to `CC(=O)NC1C(OP(=O)(O)OP(=O)(O)OCC(C=O)OC(C=O)n2ccc(=O)[nH]c2=O)OC(CO)C(O)C1O` (stereo not drawn) [Compound 7, 2′,3′-dialdehydo-UPD-N-acetylglucosamine], the “inhibition of the enzyme” value in series [4] is 93%.

For orientation: IC50 means the concentration needed to halve the response being measured. Consider `CC(=O)N[C@@H]1C(O)O[C@H](CS)[C@@H](O)[C@@H]1O` (stereo partly drawn) [Compound 11], for which the IC50 in series [5] was > 10 mM.

With `CC(=O)N[C@@H]1C(O)O[C@H](CSSC[C@H]2OC(O)[C@@H](NC(C)=O)[C@@H](O)[C@@H]2O)[C@@H](O)[C@@H]1O` (stereo partly drawn) [Compound 12], the “fold higher IC50 in comparison to 14b” value in series [5] (MNK IC50 ratio) is listed as “approximately 500 fold”. Further, in series [5], the IC50 was found to be 4.2 mM.

With `CC(=O)N[C@@H]1C(OC(C)=O)O[C@H](C[Se][Se]C[C@H]2OC(OC(C)=O)[C@@H](NC(C)=O)[C@@H](OC(C)=O)[C@@H]2OC(C)=O)[C@@H](OC(C)=O)[C@@H]1OC(C)=O` (stereo partly drawn) [Compound 14a], in series [6], the “reduction of cell viability” value was “approximately 70%”. For the same molecule, in series [7] (50 μM in cell culture medium), the “reduction of 6'-sialyl-LacNAc entity” value is on record as “approximately 85%”.

Consider `CC(=O)N[C@@H]1C(OC(C)=O)O[C@H](C[Se]C[C@H]2OC(OC(C)=O)[C@@H](NC(C)=O)[C@@H](OC(C)=O)[C@@H]2OC(C)=O)[C@@H](OC(C)=O)[C@@H]1OC(C)=O` (stereo partly drawn) [Compound 16a], for which the “effect on cell surface sialylation” value in series [7] (tested concentrations up to 50 μM) is on record as “no visible effect; also recorded: did not alter cell surface sialylation”.

Consider `CC(=O)N[C@@H]1C(O)O[C@H](C[Se]C[C@H]2OC(O)[C@@H](NC(C)=O)[C@@H](O)[C@@H]2O)[C@@H](O)[C@@H]1O` (stereo partly drawn) [Compound 16b], for which the IC50 in series [5] amounted to 3 mM.

`CCCC[Se]C[C@H]1OC(O)[C@@H](NC(C)=O)[C@@H](O)[C@@H]1O` (stereo partly drawn) [Compound 18b]: in series [5], the IC50 was 1.9 mM.

These data come from PMC6013775, “Inhibition of the key enzyme of sialic acid biosynthesis by C6-Se modified N-acetylmannosamine analogs” (Chemical Science, 2016).
